From PMC9863764, “Roles of Human Liver Cytochrome P450 Enzymes in Tenatoprazole Metabolism” (Pharmaceutics, 2022)
Where “and” joins values, the source holds several entries; their conditions need not be identical. Equal entries are not always repeated.

How the values were obtained:
Format in all cases: in vitro ADME
human CYP3A4 = target: T1, human CYP3A4 (Homo sapiens, UniProt P08684); experiment: Steady-state kinetics of tenatoprazole oxidation by recombinant CYP3A4; settings: for kcat of product formation: substrate tenatoprazole (1–500 μM), recombinant CYP3A4 0.20 μM, 37 °C, 5 min, label = product formed
T1 construct: made in house; host or cells: Escherichia coli (membrane fractions)
Procedure: Pooled liver microsomes from human samples were obtained from ThermoFisher Scientific (Waltham, MA, USA). […] Membrane fractions expressing both P450 and CPR of E. coli were prepared as described previously and were used for the catalytic activity assays. […] The reaction was started by adding NGS and the incubation was continued for the indicated time at 37 °C. Incubation was then stopped by adding ice-chilled ethyl acetate (0.50 mL) and omeprazole (IS) was added to a final concentration of 20 μM. […] Phenomenex, Torrance, CA, USA). The products formed were analyzed by HPLC at […]. The HPLC profile of the authentic chemicals (i.e., tenatoprazole, tenatoprazole sulfide, and their metabolites) were used to identify the major metabolites of tenatoprazole and tenatoprazole sulfide produced by the recombinant P450s. […] The kinetic parameters (kcat and Km) were determined by using a Michaelis-Menten nonlinear regression analysis with GraphPad Prism (GraphPad Software, San Diego, CA, USA). To further characterize the nature of the metabolites, the reaction mixtures were additionally analyzed by a 6530 Quadrupole Time-of-Flight (QTOF) mass spectrometer (MS) (Agilent, Santa Clara, CA, USA) coupled with a 1290 Infinity ultra-performance liquid chromatography (UPLC) system (Agilent). […] The reaction was initiated by adding NGS at 37 °C. […] Then, the upper layer was transferred to a glass tube and dried under nitrogen stream. The residues were reconstituted in 0.30 mL acetonitrile, then 1 μL samples were injected into an LC-MS system. The analytical column was a Hypersil Gold C18 column (100 × 2.1 mm, 1.9 μm; ThermoFisher Scientific). […] A gradient program was used for HPLC separation, and the flow rate was 0.4 mL/min. […] The column and autosampler were kept at 35 °C and 4 °C, respectively, during analysis. Electrospray ionization was performed in the positive ion mode. The sheath gas flow rate was 8 L/min. The flow rate of drying gas was 12 L/min at 350 °C, and the nebulizer's temperature was set at 350 °C. The capillary voltage was 4500 V in the positive mode, and that of the fragmentor was 175 V. Data acquisition were done over a scan range from 50 m/z to 1000 m/z in the centroid mode. A reference compound (C18H18O6N3P3F24; [M+H]^+ = 922.0098) was used to correct all of the masses. Tandem mass spectrometry (MS/MS) data were acquired in profile mode via autoanalysis for structural characterization with 30 eV of the collision energy.

CYP1B1 = target: T2, CYP1B1 (Homo sapiens, UniProt Q16678); experiment: Tenatoprazole oxidation by recombinant CYP1B1; settings: substrate tenatoprazole 0.10 mM, 0.20 μM CYP1B1; no apparent formation
T2 construct: made in house; host or cells: Escherichia coli (membrane fractions)
T2 sequence (Q16678 1-543): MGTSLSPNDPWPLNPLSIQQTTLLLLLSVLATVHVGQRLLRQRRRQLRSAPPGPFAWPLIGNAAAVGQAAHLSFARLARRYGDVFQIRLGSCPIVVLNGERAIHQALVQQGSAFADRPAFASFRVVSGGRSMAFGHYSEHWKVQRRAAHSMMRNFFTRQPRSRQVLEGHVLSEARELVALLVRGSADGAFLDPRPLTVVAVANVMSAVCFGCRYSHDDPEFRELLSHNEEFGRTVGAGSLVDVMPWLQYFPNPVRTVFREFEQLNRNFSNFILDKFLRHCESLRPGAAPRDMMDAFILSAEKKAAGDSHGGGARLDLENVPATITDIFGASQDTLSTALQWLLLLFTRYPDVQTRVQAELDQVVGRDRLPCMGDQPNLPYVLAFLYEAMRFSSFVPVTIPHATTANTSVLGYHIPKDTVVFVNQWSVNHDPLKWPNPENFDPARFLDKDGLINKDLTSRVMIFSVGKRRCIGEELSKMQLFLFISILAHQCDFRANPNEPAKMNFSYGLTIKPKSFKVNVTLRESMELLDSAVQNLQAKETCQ
Procedure: (§1) Pooled liver microsomes from human samples were obtained from ThermoFisher Scientific (Waltham, MA, USA). Recombinant human P450s were heterologously expressed in Escherichia coli with a pCW vector containing human P450 cDNA (CYP 3A4, 2C9, 2C19, 1A2, 1B1, 2E1, 2D6, and 2A6) and rat NADPH-P450 reductase (CPR). Membrane fractions expressing both P450 and CPR of E. coli were prepared as described previously and were used for the catalytic activity assays.
(§2) The reaction mixture included 0.20 μM P450, 0.40 μM CPR, and tenatoprazole (0.10 mM) in 0.25 mL of 0.10 M potassium phosphate buffer (pH 7.4). The reaction was started by adding NGS and the incubation was continued for the indicated time at 37 °C. Incubation was then stopped by adding ice-chilled ethyl acetate (0.50 mL) and omeprazole (IS) was added to a final concentration of 20 μM. The mixtures were vortexed for 2 min, centrifuged at 1000× g for 20 min, and then the organic layer was taken for drying under nitrogen gas stream. The residues were dissolved in 180 μL of HPLC mobile phase and 30 μL was injected onto a Gemini C18 column (4.6 × 150 mm, 5 μm; Phenomenex, Torrance, CA, USA). The products formed were analyzed by HPLC at A302. The HPLC profile of the authentic chemicals (i.e., tenatoprazole, tenatoprazole sulfide, and their metabolites) were used to identify the major metabolites of tenatoprazole and tenatoprazole sulfide produced by the recombinant P450s.
(§3) Figure S6. HPLC analyses of the products derived from the oxidation of tenatoprazole catalyzed by recombinant human P450s. The reaction mixture included 0.20 μM P450, 0.40 μM CPR, and 0.10 mM tenatoprazole in 0.25 mL of potassium phosphate buffer (0.10 M, pH 7.4). The reaction was started by adding an NGS at 37 °C for 60 min. (A) CYP1A2; (B) CYP1B1; (C) CYP2A6; (D) CYP2C9; (E) CYP2D6; (F) CYP2E1. The arrows with solid and broken lines indicate the retention times of 5’-OH tenatoprazole (6.6 min) and 5’-OH tenatoprazole sulfide (8.4 min), respectively.
(§4) (1 picture or pasted object on this page, not shown here)

CYP2E1 = target: T3, CYP2E1 (Homo sapiens, UniProt P05181); experiment: Tenatoprazole oxidation by recombinant CYP2E1; settings: substrate tenatoprazole 0.10 mM, 0.20 μM CYP2E1; no apparent formation
T3 construct: made in house; host or cells: Escherichia coli (membrane fractions)
Procedure: as §1, §2, §3, §4

T1 sequence (P08684 whole entry): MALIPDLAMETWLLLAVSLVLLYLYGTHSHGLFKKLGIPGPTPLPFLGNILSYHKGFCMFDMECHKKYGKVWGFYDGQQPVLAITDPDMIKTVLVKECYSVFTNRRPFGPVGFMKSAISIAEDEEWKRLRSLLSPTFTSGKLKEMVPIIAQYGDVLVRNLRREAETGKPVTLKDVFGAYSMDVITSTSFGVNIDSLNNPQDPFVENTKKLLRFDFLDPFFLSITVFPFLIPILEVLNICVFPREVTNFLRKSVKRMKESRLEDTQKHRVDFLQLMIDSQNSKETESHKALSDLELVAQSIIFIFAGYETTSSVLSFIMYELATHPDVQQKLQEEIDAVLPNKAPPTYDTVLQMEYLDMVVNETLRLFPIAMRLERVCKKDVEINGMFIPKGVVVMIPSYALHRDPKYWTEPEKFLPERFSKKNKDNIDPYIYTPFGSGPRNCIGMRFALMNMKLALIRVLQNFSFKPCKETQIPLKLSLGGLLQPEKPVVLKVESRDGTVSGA
T3 sequence (P05181 whole entry): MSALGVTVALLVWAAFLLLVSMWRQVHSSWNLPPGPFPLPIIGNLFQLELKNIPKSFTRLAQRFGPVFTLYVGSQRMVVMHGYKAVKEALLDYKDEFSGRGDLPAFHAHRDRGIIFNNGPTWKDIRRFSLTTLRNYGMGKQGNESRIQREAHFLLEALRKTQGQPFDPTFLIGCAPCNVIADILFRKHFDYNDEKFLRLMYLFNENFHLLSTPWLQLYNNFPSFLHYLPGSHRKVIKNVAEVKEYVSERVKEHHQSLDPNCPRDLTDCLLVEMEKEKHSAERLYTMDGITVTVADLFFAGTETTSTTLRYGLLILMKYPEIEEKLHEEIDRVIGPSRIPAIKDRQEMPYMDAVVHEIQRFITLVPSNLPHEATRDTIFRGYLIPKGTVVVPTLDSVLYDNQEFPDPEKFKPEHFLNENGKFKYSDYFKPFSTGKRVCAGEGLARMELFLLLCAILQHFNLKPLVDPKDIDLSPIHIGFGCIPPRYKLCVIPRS

SMILES	fold higher Km of CYP3A4 than CYP2C19 (human CYP3A4; 5′-OH tenatoprazole formation from tenatoprazole) [fold]	kcat of product formation (human CYP3A4)	formation rate of metabolite (CYP1B1)	formation rate of metabolite (CYP2E1)
COc1ccc2[nH]c([S+]([O-])Cc3ncc(CO)c(OC)c3C)nc2n1 (stereo not shown) [5′-OH tenatoprazole, 5′-hydroxy tenatoprazole]	100	6.3 min⁻¹ and 6.3 ± 0.3 min⁻¹	< 0.05 nmol product/min/nmol P450	< 0.05 nmol product/min/nmol P450
COc1ccc2[nH]c(S(=O)(=O)Cc3ncc(C)c(OC)c3C)nc2n1 [tenatoprazole sulfone]		2.7 min⁻¹ and 2.7 ± 0.8 min⁻¹	< 0.05 nmol product/min/nmol P450	< 0.05 nmol product/min/nmol P450
